US7566712B2, “Biaryl piperazinyl-pyridine analogues” (Neurogen Corporation, priority 2003, dated 2009)

Target: T1, human capsaicin receptor (Homo sapiens, UniProt Q8NER1)
T1 construct: pBK-CMV expression construct encoding the full length human capsaicin receptor; expressed in transfected cells
Assay: Calcium mobilization assay, determination of antagonist activity (Example 6)
Assay type: cell-based
Conditions: Table II; determined as described in Example 6 (antagonist activity); "*" = 1 micromolar or less
Method in brief: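 Antagonism measured as inhibition of capsaicin-evoked (final concentration = EC50, from an 8-point 1 nM–3 μM curve) Fluo-3 calcium signal in stable hVR1-HEK293 cells. Test compounds at 1–5 μM final, 0.5–6 h dark preincubation at room temperature. IC50 = concentration giving 50% reduction versus agonist-only response.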

T1 sequence (Q8NER1 whole entry): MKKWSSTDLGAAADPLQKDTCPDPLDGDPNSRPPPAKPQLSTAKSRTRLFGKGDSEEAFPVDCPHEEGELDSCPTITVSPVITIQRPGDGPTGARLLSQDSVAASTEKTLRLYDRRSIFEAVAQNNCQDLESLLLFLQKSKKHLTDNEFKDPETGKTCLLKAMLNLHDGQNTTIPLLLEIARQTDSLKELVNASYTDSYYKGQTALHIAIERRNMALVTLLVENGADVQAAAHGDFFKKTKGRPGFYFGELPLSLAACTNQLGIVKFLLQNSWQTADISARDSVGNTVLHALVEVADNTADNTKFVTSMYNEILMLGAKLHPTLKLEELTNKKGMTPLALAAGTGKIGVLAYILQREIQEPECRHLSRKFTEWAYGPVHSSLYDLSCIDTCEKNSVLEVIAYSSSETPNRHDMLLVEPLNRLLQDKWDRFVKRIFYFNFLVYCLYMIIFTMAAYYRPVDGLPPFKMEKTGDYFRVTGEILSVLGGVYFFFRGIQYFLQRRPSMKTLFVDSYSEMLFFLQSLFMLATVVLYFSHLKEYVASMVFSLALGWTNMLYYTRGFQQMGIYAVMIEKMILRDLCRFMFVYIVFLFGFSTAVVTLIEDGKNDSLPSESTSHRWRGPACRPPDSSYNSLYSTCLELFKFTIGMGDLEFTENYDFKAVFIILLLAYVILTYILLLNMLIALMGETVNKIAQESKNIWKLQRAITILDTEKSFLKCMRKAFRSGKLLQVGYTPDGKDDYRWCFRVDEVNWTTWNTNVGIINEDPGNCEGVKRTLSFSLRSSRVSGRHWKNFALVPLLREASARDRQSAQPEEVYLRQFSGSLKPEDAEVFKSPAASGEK

| Structure (SMILES) | IC50 [nM] |
| --- | --- |
| C[C@@H]1CN(c2nccnc2Cl)CCN1c1nc(Cl)cc(-c2ccc(F)cc2)n1 [Example 919, 4-chloro-2-[(2R)-4-(3-chloropyrazin-2-yl)-2-methylpiperazin-1-yl]-6-(4-fluorophenyl)pyrimidine] | ≤ 1000 |
| C[C@@H]1CN(c2nccnc2Cl)CCN1c1cc(-c2ccc(F)cc2)nc(Cl)n1 [Example 920, 2-chloro-4-[(2R)-4-(3-chloropyrazin-2-yl)-2-methylpiperazin-1-yl]-6-(4-fluorophenyl)pyrimidine] | ≤ 1000 |
| C[C@H]1CN(c2ncccc2Cl)CCN1c1cc(-c2ccc(F)c(F)c2)nc(N2CCCC2)n1 [Example 921, 4-[(2S)-4-(3-chloropyridin-2-yl)-2-methylpiperazin-1-yl]-6-(3,4-difluorophenyl)-2-pyrrolidin-1-ylpyrimidine] | ≤ 1000 |
| CC1CCCN1c1nc(-c2ccc(F)c(F)c2)cc(N2CCN(c3ncccc3Cl)C[C@@H]2C)n1 (stereo partly drawn) [Example 922, 4-[(2S)-4-(3-chloropyridin-2-yl)-2-methylpiperazin-1-yl]-6-(3,4-difluorophenyl)-2-(2-methylpyrrolidin-1-yl)pyrimidine] | ≤ 1000 |
| C[C@H]1CN(c2ncccc2Cl)CCN1c1cc(-c2ccc(F)c(F)c2)nc(N2CCOCC2)n1 [Example 923, 4-[4-[(2S)-4-(3-chloropyridin-2-yl)-2-methylpiperazin-1-yl]-6-(3,4-difluorophenyl)pyrimidin-2-yl]morpholine] | ≤ 1000 |
| Cc1cc(-c2cc(N3CCN(c4ncccc4Cl)C[C@H]3C)nc(N3CCC[C@H]3C)n2)ccc1F [Example 924, 4-[(2R)-4-(3-chloropyridin-2-yl)-2-methylpiperazin-1-yl]-6-(4-fluoro-3-methylphenyl)-2-[(2R)-2-methylpyrrolidin-1-yl]pyrimidine] | ≤ 1000 |
| C[C@@H]1CN(c2ncccc2Cl)CCN1c1cc(-c2ccc(F)c(F)c2)nc(N2CCC[C@H]2C)n1 [Example 925, 4-[(2R)-4-(3-chloropyridin-2-yl)-2-methylpiperazin-1-yl]-6-(3,4-difluorophenyl)-2-[(2R)-2-methylpyrrolidin-1-yl]pyrimidine] | ≤ 1000 |
| CC1CCCN1c1nc(-c2ccc(F)cc2)cc(N2CCN(c3nccnc3Cl)C[C@H]2C)n1 (stereo partly shown) [Example 926, 4-[4-(3-chloropyrazin-2-yl)-2-methylpiperazin-1-yl]-6-(4-fluorophenyl)-2-(2-methylpyrrolidin-1-yl)pyrimidine] | ≤ 1000 |
| C[C@@H]1CN(c2nccnc2Cl)CCN1c1cc(-c2ccc(F)cc2)nc(N2CCC[C@H]2C)n1 [Example 927, 4-[(2R)-4-(3-chloropyrazin-2-yl)-2-methylpiperazin-1-yl]-6-(4-fluorophenyl)-2-[(2R)-2-methylpyrrolidin-1-yl]pyrimidine] | ≤ 1000 |
| C[C@@H]1CN(c2nccnc2Cl)CCN1c1cc(-c2ccc(F)cc2)nc(N2CCCC2)n1 [Example 928, 4-[(2R)-4-(3-chloropyrazin-2-yl)-2-methylpiperazin-1-yl]-6-(4-fluorophenyl)-2-pyrrolidin-1-ylpyrimidine] | ≤ 1000 |
| C[C@@H]1CN(c2nccnc2Cl)CCN1c1cc(-c2ccc(F)cc2)nc(N2CCOCC2)n1 [Example 929, 4-[4-[(2R)-4-(3-chloropyrazin-2-yl)-2-methylpiperazin-1-yl]-6-(4-fluorophenyl)pyrimidin-2-yl]morpholine] | ≤ 1000 |
| C[C@@H]1CCCN1c1nc(-c2ccc(F)c(F)c2)cc(N2CCN(c3ncccc3Cl)C[C@@H]2C)n1 [Example 930, 4-[(2S)-4-(3-chloropyridin-2-yl)-2-methylpiperazin-1-yl]-6-(3,4-difluorophenyl)-2-[(2R)-2-methylpyrrolidin-1-yl]pyrimidine] | ≤ 1000 |
| Cc1cc(C#N)cnc1N1CCN(c2cc(-c3ccc(F)cc3)nc(N3CCCC3C)n2)CC1 (stereo not shown) [Example 931, 6-{4-[6-(4-fluorophenyl)-2-(2-methylpyrrolidin-1-yl)pyrimidin-4-yl]piperazin-1-yl}-5-methylnicotinonitrile] | ≤ 1000 |
| Cc1cc(C#N)cnc1N1CCN(c2cc(-c3ccc(F)cc3)nc(N3CCCC3C)n2)[C@H](C)C1 (stereo partly shown) [Example 932, 6-{4-[6-(4-fluorophenyl)-2-(2-methylpyrrolidin-1-yl)pyrimidin-4-yl]-3-methylpiperazin-1-yl}-5-methylnicotinonitrile] | ≤ 1000 |
| CCNC(=O)c1cnc(N2CCN(c3cc(-c4ccc(F)c(Cl)c4)nc(N4CCCC4C)n3)[C@H](C)C2)c(Cl)c1 (stereo partly shown) [Example 933, 5-chloro-6-{4-[6-(3-chloro-4-fluorophenyl)-2-(2-methylpyrrolidin-1-yl)pyrimidin-4-yl]-3-methylpiperazin-1-yl}-N-ethylnicotinamide] | ≤ 1000 |
| C[C@@H]1CN(c2ncccc2Cl)CCN1c1cc(-c2ccc(Cl)c(F)c2)nc(N2CCC[C@H]2C)n1 [Example 934, 4-(4-chloro-3-fluorophenyl)-6-[(2R)-4-(3-chloropyridin-2-yl)-2-methylpiperazin-1-yl]-2-[(2R)-2-methylpyrrolidin-1-yl]pyrimidine] | ≤ 1000 |

| Structure (SMILES) | IC50 [nM] |
| --- | --- |
| C[C@@H]1CN(c2nccnc2Cl)CCN1c1cc(-c2ccc(F)c(F)c2)nc(N2CCC[C@H]2C)n1 [Example 935, 4-[(2R)-4-(3-chloropyrazin-2-yl)-2-methylpiperazin-1-yl]-6-(3,4-difluorophenyl)-2-[(2R)-2-methylpyrrolidin-1-yl]pyrimidine] | ≤ 1000 |
| C[C@@H]1CN(c2ncccc2C(F)(F)F)CCN1c1cc(-c2ccc(F)c(F)c2)nc(N2CCC[C@H]2C)n1 [Example 936, 4-(3,4-difluorophenyl)-2-[(2R)-2-methylpyrrolidin-1-yl]-6-{(2R)-2-methyl-4-[3-(trifluoromethyl)pyridin-2-yl]piperazin-1-yl}pyrimidine] | ≤ 1000 |
| C[C@H]1CN(c2nccnc2Cl)CCN1c1cc(-c2ccc(F)c(F)c2)nc(N2CCCC2)n1 [Example 937, 4-[(2S)-4-(3-chloropyrazin-2-yl)-2-methylpiperazin-1-yl]-6-(3,4-difluorophenyl)-2-pyrrolidin-1-ylpyrimidine] | ≤ 1000 |
| CC1CCCN1c1nc(-c2ccc(F)c(F)c2)cc(N2CCN(c3nccnc3Cl)C[C@@H]2C)n1 (stereo partly drawn) [Example 938, 4-[(2S)-4-(3-chloropyrazin-2-yl)-2-methylpiperazin-1-yl]-6-(3,4-difluorophenyl)-2-(2-methylpyrrolidin-1-yl)pyrimidine] | ≤ 1000 |
| C[C@@H]1CN(c2ncccc2Cl)CCN1c1cc(-c2ccc(F)c(Cl)c2)nc(N2CCC[C@H]2C)n1 [Example 940, 4-(3-chloro-4-fluorophenyl)-6-[(2R)-4-(3-chloropyridin-2-yl)-2-methylpiperazin-1-yl]-2-[(2R)-2-methylpyrrolidin-1-yl]pyrimidine] | ≤ 1000 |
| C[C@@H]1CCCN1c1cc(-c2ccc(F)c(Cl)c2)nc(N2CCN(c3ncccc3Cl)C[C@H]2C)n1 [Example 941, 4-(3-chloro-4-fluorophenyl)-2-[(2R)-4-(3-chloropyridin-2-yl)-2-methylpiperazin-1-yl]-6-[(2R)-2-methylpyrrolidin-1-yl]pyrimidine] | ≤ 1000 |
| C[C@@H]1CN(c2nccnc2Cl)CCN1c1cc(-c2ccc(F)c(Cl)c2)nc(N2CCC[C@H]2C)n1 [Example 942, 4-(3-chloro-4-fluorophenyl)-6-[(2R)-4-(3-chloropyrazin-2-yl)-2-methylpiperazin-1-yl]-2-[(2R)-2-methylpyrrolidin-1-yl]pyrimidine] | ≤ 1000 |
| C[C@H]1CN(c2ncccc2Cl)CCN1c1cc(-c2ccc(F)c(Cl)c2)nc(Cl)n1 [Example 944, 2-chloro-4-(3-chloro-4-fluorophenyl)-6-[(2S)-4-(3-chloropyridin-2-yl)-2-methylpiperazin-1-yl]pyrimidine] | ≤ 1000 |
| C[C@@H]1CCCN1c1nc(-c2ccc(F)c(Cl)c2)cc(N2CCN(c3ncccc3Cl)C[C@@H]2C)n1 [Example 945, 4-(3-chloro-4-fluorophenyl)-6-[(2S)-4-(3-chloropyridin-2-yl)-2-methylpiperazin-1-yl]-2-[(2R)-2-methylpyrrolidin-1-yl]pyrimidine] | ≤ 1000 |
| C[C@H]1CN(c2ncccc2Cl)CCN1c1cc(-c2ccc(F)c(Cl)c2)nc(N2CCCC2)n1 [Example 946, 4-(3-chloro-4-fluorophenyl)-6-[(2S)-4-(3-chloropyridin-2-yl)-2-methylpiperazin-1-yl]-2-pyrrolidin-1-ylpyrimidine] | ≤ 1000 |
| C[C@H]1CN(c2ncccc2Cl)CCN1c1cc(-c2ccc(F)c(Cl)c2)nc(N2CCOCC2)n1 [Example 947, 4-{4-(3-chloro-4-fluorophenyl)-6-[(2S)-4-(3-chloropyridin-2-yl)-2-methylpiperazin-1-yl]pyrimidin-2-yl}morpholine] | ≤ 1000 |
| C[C@@H]1CCCN1c1cc(-c2ccc(F)c(Cl)c2)nc(N2CCN(c3ncccc3Cl)C[C@@H]2C)n1 [Example 948, 4-(3-chloro-4-fluorophenyl)-2-[(2S)-4-(3-chloropyridin-2-yl)-2-methylpiperazin-1-yl]-6-[(2R)-2-methylpyrrolidin-1-yl]pyrimidine] | ≤ 1000 |
| C[C@@H]1CCCN1c1cc(-c2ccc(F)c(F)c2)nc(N2CCN(c3ncccc3Cl)C[C@@H]2C)n1 [Example 949, 2-[(2S)-4-(3-chloropyridin-2-yl)-2-methylpiperazin-1-yl]-4-(3,4-difluorophenyl)-6-[(2R)-2-methylpyrrolidin-1-yl]pyrimidine] | ≤ 1000 |
| C[C@@H]1CCCN1c1cc(-c2ccc(F)c(F)c2)nc(N2CCN(c3nccnc3Cl)C[C@@H]2C)n1 [Example 950, 2-[(2S)-4-(3-chloropyrazin-2-yl)-2-methylpiperazin-1-yl]-4-(3,4-difluorophenyl)-6-[(2R)-2-methylpyrrolidin-1-yl]pyrimidine] | ≤ 1000 |
| C[C@@H]1CCCN1c1nc(-c2ccc(F)c(F)c2)cc(N2CCN(c3nccnc3Cl)C[C@@H]2C)n1 [Example 951, 4-[(2S)-4-(3-chloropyrazin-2-yl)-2-methylpiperazin-1-yl]-6-(3,4-difluorophenyl)-2-[(2R)-2-methylpyrrolidin-1-yl]pyrimidine] | ≤ 1000 |
